Laboratory results: patent publication US20260232578A1, “COMPOSITIONS AND METHODS FOR TRANSMUCOSAL ABSORPTION” (Tonix Pharma Limited, priority 2012, published 2026)

Key:
in vivo = conditions: female, beagle, dog; for AUC(0-t) / AUC(0-inf): 1.79 mg; for AUC(0-t): AUC0-24 h; for AUC(0-inf): AUC0-∞h
Protocol: The protocol was designed as outlined in Table 23.
The method requires a lithium heparinized plasma sample volume of 200 μl. The extraction is a liquid liquid extraction with hexane, and the extracts are injected using an HPLC system and an […] (Applied Biosystems) for the MS/MS detection, with a “Onyx monolithic Phenomenex C18 100×3.0 mm” column.
Concentrations of the samples are calculated using Watson® 7.2.0.03 directly from chromatograms after automatic integration by Analyst® 1.5.1 and expressed as ng/mL. Mean plasma concentrations will be calculated (when calculable, i.e. n>2) using individual concentrations and will be expressed with the corresponding standard deviation value and variation coefficients (when calculable, i.e. n>3) (with CV(%)=(SD/mean)×100). The individual plasma concentrations are tabulated for each dog and scheduled sampling time. Concentrations below the LLOQ are designated as “BLQ.” All BLQ concentrations are substituted by zero for calculation of the descriptive statistics of the concentrations.
Pharmacokinetic analysis is carried out using […]® (Version 4.3 (Thermo Electron Corporation)). An independent model (non compartmental analysis) is used. All BLQ values in the absorption phase are substituted by zero, except for BLQ values between evaluable concentrations, which are treated as missing values, before the calculation of the pharmacokinetic variables. The terminal BLQ values are ignored. The following pharmacokinetic parameters are calculated:
5 non-naive female dogs are used, each dog receiving the test substance by oral administration via nasogastric tube to the stomach (NG) administration, sublingual administration (SL), and by intravenous (IV) administration. There is a “wash-out” period of at least two weeks between each type of administration. Blood samples are drawn as follows:
A single NG dose of 0.14 mg/kg (under a volume of 5 ml/kg and a solution concentration of 0.028 mg/mL) is administered.
After a wash-out period of at least 2 weeks, dogs are sedated using propofol (6.5 mg/kg IV). They will be then given a single sublingual dose of 0.14 mg/kg (under a volume of 0.056 mL/kg and a solution concentration of 2.5 mg/mL).
After a wash-out period of at least 2 weeks, dogs are given a single IV dose of 0.14 mg/kg (under a volume of 1 mL/kg, bolus of approximately 30 sec, and a solution concentration of 0.14 mg/mL).
Blood sampling was designed to minimize animal suffering and to ensure the quality of the biological samples, and was adapted from basic procedures commonly used in studies performed in dogs. Serial blood samples (1 tube of approximately 5 mL) are collected from a jugular vein using vacuum tubes containing lithium heparin. After sealing each tube, the blood samples are manually agitated and stored on ice until centrifugation (within 30 minutes of sampling). The samples are centrifuged at 1500 g, at 4° C., for 10 minutes. The entire resultant plasma obtained from each tube is immediately transferred to suitably labeled polypropylene tubes (3 aliquots of plasma of at least 500 μl each), which are stored upright at approximately −80° C. and protected from light until bioanalysis.
The dogs are fasted overnight before each administration, and food is given to the dogs 4 hours after each treatment. […] In each of the three routes, a potassium phosphate buffer (pH 7.4) is used as the vehicle.
As referred to in Example 4, a study was designed in order to assess the effects of the compositions and methods of the invention. […] The pharmacokinetic parameters were then calculated. A summary of the study design is as follows:
Blood was collected in a fasted condition for all three routes of administration. […] Briefly, the method involved liquid-liquid extraction with hexane. The extracts were injected using an HPLC system and an API4000® (Applied Biosystems) for the MS/MS detection, with an “Onyx monolithic Phenomenex C18 100×3.0 mm” column.

clinical [1] = conditions: human, in vivo, 2.4 mg
Protocol: Treatment A: A single dose of one TNX-102 2.4 mg SL tablet (with phosphate). Subjects were asked to keep the tablet under the tongue until dissolved and not to crush or chew it. Subjects were asked not to drink any water until at least 1 hour after dosing.
Treatment B: A single dose of one TNX-102-A 2.4 mg SL tablet (without phosphate). Subjects were asked to keep the tablet under the tongue until dissolved and not to crush or chew it. Subjects were asked not to drink any water until at least 1 hour after dosing.
Treatment C: A single dose of two TNX-102 2.4 mg SL tablets (with phosphate). Subjects will be asked to keep the tablets under the tongue until dissolved and not to crush or chew them. Subjects were asked not to drink any water until at least 1 hour after dosing.
Subjects were asked to swallow the administered tablet whole and not to crush or chew it.
Partial AUC at different times were calculated to examine the effect of sublingual administration on absorption.

clinical [2] = conditions: human, in vivo, po, 5 mg
Protocol: The conditions used were as follows:
Quantitation was based on peak area ratio of the analytes versus their stable labeled internal standards. A weighted (1/C2), linear regression was performed to determine the concentration of the analytes. All regressions and figures presented in this validation report were generated by MDS Sciex Analyst version 1.4.2 and Thermo Electron Corporation Watson LIMS software, version 7.0.0.01b. […] Select receptors were analyzed in ligand-induced intracellular calcium mobilization.

muscarinic M2 receptor = muscarinic M2 receptor (Homo sapiens, UniProt P08172); assay: Equilibrium receptor binding, recombinant human receptor; parameters: expressed in transfected cells
muscarinic M1 receptor = molecular target: T1, muscarinic M1 receptor (Homo sapiens, UniProt P11229)
T1 sequence (P11229 1-460): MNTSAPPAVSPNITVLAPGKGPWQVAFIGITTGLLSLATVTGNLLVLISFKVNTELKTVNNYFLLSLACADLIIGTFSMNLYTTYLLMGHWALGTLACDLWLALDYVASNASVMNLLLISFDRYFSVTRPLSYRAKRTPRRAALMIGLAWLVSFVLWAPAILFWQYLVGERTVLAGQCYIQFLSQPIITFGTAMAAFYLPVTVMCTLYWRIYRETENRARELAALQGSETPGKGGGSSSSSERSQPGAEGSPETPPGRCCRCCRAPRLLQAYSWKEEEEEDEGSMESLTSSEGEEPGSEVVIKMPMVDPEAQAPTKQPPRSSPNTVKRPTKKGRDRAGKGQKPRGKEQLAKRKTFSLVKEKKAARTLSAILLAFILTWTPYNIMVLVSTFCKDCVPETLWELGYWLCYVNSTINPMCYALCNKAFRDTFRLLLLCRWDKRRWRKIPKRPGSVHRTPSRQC

Sequence of muscarinic M2 receptor (P08172 whole entry): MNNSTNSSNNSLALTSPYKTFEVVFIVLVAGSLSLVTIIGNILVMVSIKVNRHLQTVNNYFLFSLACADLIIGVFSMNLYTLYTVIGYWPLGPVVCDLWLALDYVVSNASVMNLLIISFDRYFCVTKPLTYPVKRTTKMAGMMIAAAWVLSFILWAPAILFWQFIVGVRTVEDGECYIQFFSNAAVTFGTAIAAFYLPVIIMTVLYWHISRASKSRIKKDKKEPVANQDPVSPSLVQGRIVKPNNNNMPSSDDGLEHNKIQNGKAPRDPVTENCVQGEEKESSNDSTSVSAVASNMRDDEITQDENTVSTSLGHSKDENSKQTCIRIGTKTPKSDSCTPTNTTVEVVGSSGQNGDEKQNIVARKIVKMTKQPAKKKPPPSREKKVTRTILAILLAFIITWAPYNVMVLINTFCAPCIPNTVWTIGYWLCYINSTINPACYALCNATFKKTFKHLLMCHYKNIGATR

Which “increase in bioavailability, sublingual vs PO” value (in vivo) does the source give for CN(C)CCC=C1c2ccccc2C=Cc2ccccc21 [cyclobenzaprine, 3-(5H-dibenzo[a,d]cyclohepten-5-ylidene)-N,N-dimethyl-1-propanamine] here?
The value was about 77 fold.

What about the AUC(0-t) (in vivo) of the same compound?
The AUC(0-t) was 127 ± 37.1 ng·h/mL.

And the AUC(0-inf) (in vivo)?
Its AUC(0-inf) is 129 ± 36.4 ng·h/mL.

What about the bioavailability (in vivo; bioavailability, conclusion) of the same compound?
Its bioavailability is about 100%.

What about the concentration at 0.5 h (in vivo; iv, 0.14 mg/kg, plasma level) of the same compound?
Its concentration at 0.5 h is 52.3 ng/mL.

What about the concentration at 6 h (in vivo; iv, 0.14 mg/kg, plasma level) of the same compound?
The concentration at 6 h was 3.4 ng/mL.

And the AUC(0-t) (in vivo; iv)?
Its AUC(0-t) is 43.5 ± 3.77 ng·h/mL.

And the AUC(0-inf) (in vivo; iv)?
The AUC(0-inf) was 44.9 ± 4.15 ng·h/mL.

And the AUC(0-inf) (clinical [1])?
The AUC(0-inf) was about 61 ng·h/mL.

And the Cmax (clinical [1])?
Its Cmax is about 2.74 ng/mL.

What about the AUC(0-t) (clinical [1]; AUC0-20min) of the same compound?
The AUC(0-t) was about 0.04 ng·h/mL.

And the AUC(0-t) (clinical [1]; AUC0-30min)?
Its AUC(0-t) is about 0.13 ng·h/mL.

What about the AUC(0-t) (clinical [1]; AUC0-45min) of the same compound?
The AUC(0-t) was about 0.33 ng·h/mL.

And the AUC(0-t) (clinical [1]; AUC0-1 h)?
The AUC(0-t) was about 0.61 ng·h/mL.

And the AUC(0-t) (clinical [1]; AUC0-2 h)?
Its AUC(0-t) is about 2.1 ng·h/mL.

What about the AUC(0-t) (clinical [1]; AUC0-3 h) of the same compound?
The AUC(0-t) was about 3.93 ng·h/mL.

And the AUC(0-t) (clinical [1]; AUC0-4 h)?
Its AUC(0-t) is about 6.27 ng·h/mL.

And the AUC(0-t) (clinical [1]; AUC0-5.5 h)?
The AUC(0-t) was about 10.1 ng·h/mL.

What about the AUC(0-t) (clinical [1]; AUC0-6 h) of the same compound?
The AUC(0-t) was about 11.3 ng·h/mL.

What about the AUC(0-t) (clinical [1]; AUC0-8 h) of the same compound?
Its AUC(0-t) is about 15.1 ng·h/mL.

What about the AUC(0-t) (clinical [1]; AUC0-12 h) of the same compound?
The AUC(0-t) was about 50.3 ng·h/mL.

What about the AUC(0-t) (clinical [1]; AUC0-[…] (second mention, after AUC0-[…])) of the same compound?
Its AUC(0-t) is about 8.81 ng·h/mL.

And the AUC(0-t) (clinical [2])?
Its AUC(0-t) is 92.2 ± 29.9 ng·h/mL.

With CNCCC=C1c2ccccc2C=Cc2ccccc21 [norcyclobenzaprine, 3-(5H-dibenzo[a,d]cyclohepten-5-ylidene)-N-methyl-1-propanamine] as the compound, how does the Ki (muscarinic M2 receptor) read?
The Ki was 76 nM.

What about the “Hill plot ratio (Hill slope)” value (muscarinic M1 receptor) of the same compound?
The value was 0.70.
